# Structures can show the parent of a compound that is named as a salt. Where two headings read alike, the source gives them in different places.
# Legend:
# [1] = tested on: Calu-6 human lung cancer xenograft; format: in vivo; conditions: 80 mg/kg (2/3 MTD) i.v. weekly x2; day 32
# Description: The Calu-6 human lung carcinoma cell line was purchased from American Type Culture Collection (MD, U.S.A.). The cells were cultured in Eagle's MEM (Sigma-Aldrich corporation, MO, U.S.A.) supplemented with 0.1 milli mol/L Non-essential amino acids (Invitrogen corporation, CA, U.S.A.), 1 milli mol/L sodium pyruvate (Invitrogen corporation, CA, U.S.A.), and 10% (v/v) fetal bovine serum (Roche Diagnostics KK, Tokyo, Japan).
# 60 of 5-week-old male athymic nude mice (BALB/c nu/nu) were purchased from Charles River Japan, Inc. (Yokohama, Japan). All mice were kept for 8 days in the animal facility of Kamakura Research Laboratories of Chugai Pharmaceutical Co., Ltd. before subjection to the experiment.
# (§1) The title compound was synthesized at Kamakura Research Laboratories of Chugai Pharmaceutical Co., Ltd. Irinotecan (Topotecin™, lot. No. EQAZF13) was obtained from Daiichi Pharmaceutical Co., Ltd. (Tokyo, Japan). The title compound was dissolved in dimethyl sulfoxide (DMSO) and diluted into 2.5 % DMSO solution with saline (For Injection; Ohtsuka Pharmaceutical Industry Co., Ltd., Tokushima, Japan) at the date of administration. Irinotecan was diluted with saline at the date of administration.
# The in vivo evaluation procedure for anticancer drugs was based on the methods described by Plowman, et al. (1997) for xenograft models. See, “Anticancer Drug Development Guide: Preclinical Screening, Clinical Trials, and Approval, Teicher B (ed) pp. 101-125, specifically Chap. 6, “Human Tumor Xenograft Models in NCI Drug Development”, hereby incorporated by reference. A single cell suspension of Calu-6 (5.7×10^6 cells per mouse) was inoculated subcutaneously into the right flank of each mouse. The tumor volume was estimated by using the equation ab^2/2, where a and b represent tumor length and width, respectively. Mice bearing tumors of between 181 and 326 mm^3 were selected on day 11 after tumor inoculation and were randomly divided into 10 groups, consisting of 5 mice each. […] Drug administration was initiated after mice were randomized and divided into groups. The tide compound (0.375 mg/kg; 0.75 mg/kg; 1.5 mg/kg or 3 mg/kg), irinotecan (80 mg/kg) and each vehicles were administered intravenously. Tumor volume and body weight of each mouse were measured twice a week. […] Tumor growth inhibition was calculated by using the equation (1-ΔT/ΔC)×100, where ΔT represents the tumor volume difference from the initial treatment date of treated group and ΔC represents the tumor volume difference from the initial treatment date of vehicle group.
# [2] = Maximum tolerated dose (neither lethality nor more than 20% body weight loss) in mice; conditions: BALB/c nu/nu (athymic nude), mouse, in vivo, dose with neither lethality nor more than 20% body weight loss; for MTD at 14 days: oral
# Text: The in vivo evaluation procedure for anticancer drugs was based on the methods described by Plowman, et al. (1997) for xenograft models. See, “Anticancer Drug Development Guide: Preclinical Screening, Clinical Trials, and Approval, Teicher B (ed) pp. 101-125, specifically Chap. 6, “Human Tumor Xenograft Models in NCI Drug Development”, hereby incorporated by reference.
# See, “Anticancer Drug Development Guide: Preclinical Screening, Clinical Trials, and Approval, Teicher B (ed) pp. 101-125, specifically Chap. 6, “Human Tumor Xenograft Models in NCI Drug Development”, hereby incorporated by reference.
# The in vivo evaluation procedure for anticancer drugs was based on the methods described by Plowman, et al. (1997) for xenograft models. See, “Anticancer Drug Development Guide: Preclinical Screening, Clinical Trials, and Approval, Teicher B (ed) pp. 101-125, specifically Chap.
# [3] = tested on: HT-29 human colorectal adenocarcinoma xenograft; format: in vivo; conditions: day 31
# Description: The HT-29 human colorectal adenocarcinoma cell line was purchased from American Type Culture Collection (Rockville, MD, U.S.A.). The cells were cultured in McCoy's 5a medium (Sigma-Aldrich Corporation, MO, U.S.A.) supplemented with 10% (v/v) fetal bovine serum (Roche Diagnostics KK, Tokyo, Japan).
# Sixty of 5-week-old male athymic nude mice (BALB/c nu/nu) were purchased from Charles River Japan, Inc. (Yokohama, Japan). All mice were kept for 9 days in the animal facility of Kamakura Research Laboratories of Chugai Pharmaceutical Co., Ltd. before subjection to the experiment.
# Capecitabine was dissolved by the 40 milli mol/L citrate buffered-5% Gum arabic solution (pH 6.0; Chugai Pharmaceutical Co., Ltd.).
# The in vivo evaluation procedure for anticancer drugs was based on the methods described by Plowman, et al. (1997) for xenograft models. See, “Anticancer Drug Development Guide: Preclinical Screening, Clinical Trials, and Approval, Teicher B (ed) pp. 101-125, specifically Chap. 6, “Human Tumor Xenograft Models in NCI Drug Development”, hereby incorporated by reference. A single cell suspension of HT-29 (1.1×10^7 cells per mouse) was inoculated subcutaneously into the right flank of each mouse. The tumor volume was estimated by using the equation ab^2/2, where a and b represent tumor length and width, respectively. Mice bearing tumors of between 172 and 282 mm^3 were selected on day 10 after tumor inoculation and were randomly divided into 7 groups, consisting of 6 mice each. Mean tumor volume and body weight of the selected mice were 217 mm^3 and 25.0 g respectively. Drug administration was initiated after mice were divided into groups. […] Capecitabine (359 mg/kg or 539 mg/kg) and its vehicle were administered orally. Tumor volume and body weight of each mouse were measured twice a week. […] Tumor growth inhibition was calculated using the equation (1-ΔT/ΔC)×100, where ΔT represents the difference in tumor volume from the initial treatment date of the treated group and ΔC represents the difference in tumor volume from the initial treatment date of the vehicle group.
# [4] = tested on: NCI-H460 human large cell lung carcinoma xenograft; assay: Antitumor activity in NCI-H460 subcutaneous xenograft in athymic nude mice, combination with cisplatin (Example 4); format: in vivo; conditions: day 12
# Description: The NCI-H460 human large cell lung carcinoma cell line was purchased from American Type Culture Collection (MD, U.S.A.). The cells were cultured in RPMI-1640 medium (cat. # R8758, lot 12K2310, exp 01/03; lot 82K2497, exp 08/03; Sigma-Aldrich corporation, MO, U.S.A.) supplemented with 10% (v/v) fetal bovine serum (cat. # 047115, lot # 31300124; Roche Diagnostics KK, Tokyo, Japan).
# Sixty of 5-week-old male athymic nude mice (BALB/c nu/nu) were purchased from Charles River Japan, Inc. (Yokohama, Japan). All mice were kept for 8 days in the animal facility of Kamakura Research Laboratories of Chugai Pharmaceutical Co., Ltd. before subjection to the experiment.
# as §1, with “CDDP (Randa™, lot # 924150)” for “Irinotecan (Topotecin™, lot. No. EQAZF13)”, “Nippon Kayaku” for “Daiichi Pharmaceutical”, “(for” for “(For”, “CDDP” for “Irinotecan”
# The in vivo evaluation procedure for anticancer drugs was based on the methods described by Plowman, et al. (1997) for xenograft models. See, “Anticancer Drug Development Guide: Preclinical Screening, Clinical Trials, and Approval, Teicher B (ed) pp. 101-125, specifically Chap. 6, “Human Tumor Xenograft Models in NCI Drug Development”, hereby incorporated by reference. A single cell suspension of NCI-H460 (5.6×10^6 cells per mouse) was inoculated subcutaneously into the right flank of each mouse. The tumor volume was estimated by using the equation ab^2/2, where a and b represent tumor length and width, respectively. Mice bearing tumors of between 150 and 245 mm^3 were selected on day 7 after tumor inoculation and were randomly divided into 8 groups, consisting of 5 mice each. Mean tumor volume and body weight of the selected mice were 187 mm3 and 24.3 g, respectively. Drug administration was initiated after mice were divided into groups. The title compound (2 mg/kg or 3 mg/kg), CDDP (5 mg/kg or 6.7 mg/kg) and each vehicle were administered intravenously. Tumor volume and body weight of each mouse were measured twice a week. […] Tumor growth inhibition was calculated using the equation (1-ΔT/ΔC)×100, where ΔT represents the difference in tumor volume from the initial treatment date of the treated group and ΔC represents the difference in tumor volume from the initial treatment date of the vehicle group.
smiles,measurement,setting,value
"CCc1c2c(nc3ccc(OC(=O)N4CCC(N5CCCCC5)CC4)cc13)-c1cc3c(c(=O)n1C2)COC(=O)[C@]3(O)CC [irinotecan, irinotecan hydrochloride, reference compound]",tumor growth inhibition,[1],68%
same,MTD,[2],120 mg/kg
"CCCCCOC(=O)Nc1nc(=O)n([C@@H]2O[C@H](C)[C@@H](O)[C@H]2O)cc1F [capecitabine, reference compound]",reduction of tumor growth,[3]; 359 mg/kg (2/3 MTD) p.o. daily for 14 days,32%
same,reduction of tumor growth,[3]; 539 mg/kg (MTD) p.o. daily for 14 days,50%
same,MTD at 14 days,[2]; 359 mg/kg,359 mg/kg
same,MTD at 14 days,[2],539 mg/kg
"N.N.[Cl][Pt][Cl] [CDDP, cis-diamminedichloroplatinum, reference compound]",reduction of tumor growth,[4]; 5 mg/kg (1/2 MTD) i.v. on first day,56%
same,reduction of tumor growth,[4]; 6.7 mg/kg (2/3 MTD) i.v. on first day,66%

# — patent publication US20060292158A1, “Method for the treatment of cancer using a novel pharmaceutical composition containing at least one dolastatin 10 derivative” (priority 2004, published 2006)
